For one assay, the target named is T1, mouse RXFP2 (Mus musculus, UniProt Q91ZZ5).
T1 construct: expressed in transfected cells; host or cells: HEK-CRE-Luc (transient, Lipofectamine2000)
Kind of assay: Luciferase cAMP assay in HEK-CRE-Luc cells transiently transfected with mouse RXFP2. Format: cell-based. The conditions noted are these: 10 μM-[…], compared with human RXFP2 response. How it is done:
It was of interest if the RXFP2 agonists of formula (I) activate the mouse RXFP2 receptor. HEK-CRE-Luc cells transiently transfected with mouse RXFP2 were used to test agonist activity by measuring induction of cAMP. For this assay, cells were seeded in 6-well flat-bottom clear plates at 0.6 million cells/well in 2 mL/well of growth medium (DMEM, 10% FBS, 1× Pen/Strep) and allowed to attach overnight at 37° C., 5% CO2. The next morning, cells were transfected with 2 μg of plasmid (human or mouse RXFP2) and 6 μL of Lipofectamine2000 (Invitrogen, Waltham, MA) in a total volume of 200 μl/well OPTI-MEM™ I (Thermo Fisher, Waltham, MA) reduced serum medium and incubated an additional 24 hours. The transfected cells were then harvested and seeded in 96-well flat-bottom opaque plates at 30,000 cells/well in 60 μL/well of serum-free DMEM medium and incubated overnight to attach. The next morning, cells were treated with 1 μL/well of compound (10 μM-1.2 nM), 2 μM forskolin, or DMSO vehicle, and with 4 μL of positive control INSL3 (100-0.01 nM) (Phoenix Pharmaceuticals, Burlingame, CA) or vehicle serum-free DMEM. […] Plates were incubated for 40 minutes at room temperature protected from light, and the signal was read on a CLARIOstar plate reader (BMG Labtech, Germany). […]

Another assay has as its target T2, WT RXFP2 (Homo sapiens, UniProt Q8WXD0).
T2 construct: using full-length human RXFP1 and RXFP2 receptor constructs; FLAG; expressed in transfected cells; host or cells: HEK293T (transient, Lipofectamine2000)
Kind of assay: HTRF cAMP assay in HEK293T cells transiently transfected with WT RXFP2. It is filed as cell-based. From the text:
To further investigate the involvement of the RXFP2 extracellular and transmembrane domains in agonist activation of the receptor, two complementary chimeras were created using the RXFP1 receptor, which is not activated by the agonists of formula (I), to transiently transfect HEK293T cells and measured changes in cAMP induction using the HTRF assay.
Chimeric receptors were generated by IN-FUSION™ (Takara Bio USA, Inc., San Jose, CA) mutagenesis using full-length human RXFP1 and RXFP2 receptor constructs. Polymerase chain reaction (PCR) was performed using PfuTurbo high-fidelity DNA polymerase (Agilent Technologies, Santa Clara, CA) and overlapping primers with at least 15 bp sequence homology within the fusion site. PCR products were digested with Dpnl restricton enzyme at 37° C. overnight, run on a 0.8% agarose gel and purified using the GENEJET™ Gel extraction kit (Thermo Scientific, Waltham, MA). The purified DNA fragments were then ligated into the BamHI and XhoI pre-digested pcDNA3.1™/Zeo(+) AmpR mammalian expression vector using the In-Fusion HD enzyme premix (Clontech, Mountain View, CA) at 50° C. for 15 minutes, and the resulting product was used to transform Stellar competent cells (Takara Bio USA, Inc., San Jose, CA). The clones were fully sequenced to confirm the correct fusion of both receptor fragments. Chimera RXFP2-1 contained the extracellular domain of RXFP2 and the transmembrane domain of RXFP1. Accordingly, chimera RXFP1-2 contained the extracellular domain of RXFP1 and the transmembrane domain of RXFP2.
HEK293T cells were seeded in 6-well flat-bottom clear plates at 0.5 million cells/well in 2 mL/well of growth medium (DMEM, 10% FBS, 1× Pen/Strep) and allowed to attach overnight at 37° C. and 5% CO2. The next morning, cells were transfected with 2 μg of plasmid (chimeric receptors, WT RXFP2, or WT RXFP1) and 6 μl of Lipofectamine2000 (Invitrogen, Waltham, MA) in a total volume of 200 μl/well OPTI-MEM™ I (Thermo Fisher, Waltham, MA) reduced serum medium and allowed to incubate an additional 24 hours. The next day, transfected cells were seeded in 96-well flat-bottom opaque plates at 30,000 cells/well in 60 μL/well of serum-free DMEM medium and allowed to attach overnight at 37° C. at 5% CO2. The next morning, cells were treated with 1 μL/well of compound (25 μM-0.25 nM), 2 μM forskolin, or DMSO vehicle. Cells were also treated with 4 μL of positive control INSL3 (100-0.01 nM), Relaxin2 (100-10 nM), or vehicle (serum-free DMEM+IBMX). Plates were incubated for 1 hour at 37° C. and 5% CO2, after which kit cAMP-d2 and anti-cAMP antibody were added as previously described. Cells were incubated for 1 hour at room temperature, and then the signal was read on a CLARIOstar plate reader (BMG Labtech, Germany).

Structures are written as SMILES.

As usually defined, the Emax is the size of the effect at its maximum, as opposed to the concentration needed. For orientation: EC50 means the concentration needed to bring the measured effect to its halfway point.

T2 sequence (Q8WXD0 whole entry): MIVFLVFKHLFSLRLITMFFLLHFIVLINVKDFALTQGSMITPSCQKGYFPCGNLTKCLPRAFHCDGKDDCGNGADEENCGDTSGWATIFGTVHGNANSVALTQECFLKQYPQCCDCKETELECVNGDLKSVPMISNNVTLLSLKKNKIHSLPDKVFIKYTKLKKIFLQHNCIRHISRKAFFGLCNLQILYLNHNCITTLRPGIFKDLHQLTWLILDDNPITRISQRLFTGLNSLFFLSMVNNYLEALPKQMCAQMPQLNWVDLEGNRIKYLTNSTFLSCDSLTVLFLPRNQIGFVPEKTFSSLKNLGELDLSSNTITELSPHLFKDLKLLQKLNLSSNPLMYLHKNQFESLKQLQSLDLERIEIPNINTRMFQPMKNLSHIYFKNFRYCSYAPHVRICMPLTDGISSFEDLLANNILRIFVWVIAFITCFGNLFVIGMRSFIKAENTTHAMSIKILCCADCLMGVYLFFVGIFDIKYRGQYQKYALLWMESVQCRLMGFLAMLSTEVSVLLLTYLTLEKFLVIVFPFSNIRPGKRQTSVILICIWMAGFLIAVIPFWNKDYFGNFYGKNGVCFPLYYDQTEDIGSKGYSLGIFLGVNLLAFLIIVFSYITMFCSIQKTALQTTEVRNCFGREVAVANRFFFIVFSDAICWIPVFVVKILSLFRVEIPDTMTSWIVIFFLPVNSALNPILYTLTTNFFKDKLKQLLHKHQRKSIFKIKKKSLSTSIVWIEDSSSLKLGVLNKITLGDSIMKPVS
T1 sequence (Q91ZZ5 whole entry): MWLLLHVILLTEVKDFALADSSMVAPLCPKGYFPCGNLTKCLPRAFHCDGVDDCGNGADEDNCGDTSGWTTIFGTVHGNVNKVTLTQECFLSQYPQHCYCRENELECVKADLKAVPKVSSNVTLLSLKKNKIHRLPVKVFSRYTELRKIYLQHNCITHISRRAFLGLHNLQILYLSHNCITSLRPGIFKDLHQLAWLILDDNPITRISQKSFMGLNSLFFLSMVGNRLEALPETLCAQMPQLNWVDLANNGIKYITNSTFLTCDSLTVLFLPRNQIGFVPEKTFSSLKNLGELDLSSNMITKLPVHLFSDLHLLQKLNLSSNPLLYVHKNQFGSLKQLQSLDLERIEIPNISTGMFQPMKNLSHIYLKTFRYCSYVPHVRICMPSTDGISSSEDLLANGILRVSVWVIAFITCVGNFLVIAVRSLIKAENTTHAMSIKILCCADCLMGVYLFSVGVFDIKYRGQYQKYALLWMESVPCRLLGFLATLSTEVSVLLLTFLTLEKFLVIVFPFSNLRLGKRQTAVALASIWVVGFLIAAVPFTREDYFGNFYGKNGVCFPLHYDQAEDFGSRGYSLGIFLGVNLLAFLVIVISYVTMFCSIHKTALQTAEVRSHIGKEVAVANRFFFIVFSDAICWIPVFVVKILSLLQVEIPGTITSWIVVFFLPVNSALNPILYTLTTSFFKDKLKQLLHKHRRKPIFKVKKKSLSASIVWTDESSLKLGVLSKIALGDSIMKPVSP

For the molecule `O=C1Nc2ccc(-c3cccc(C(F)(F)F)c3)cc2C(=O)N2CCN(C(=O)COc3ccc(OC(F)(F)F)cc3Br)C[C@@H]12` [Example 123, (S)-2-(2-(2-bromo-4-(trifluoromethoxy)phenoxy)acetyl)-8-(3-(trifluoromethyl)phenyl)-1,3,4,12a-tetrahydrobenzo[e]pyrazino[1,2-a][1,4]diazepine-6,12 (2H, 11H)-dione], the “mouse RXFP2 activation (cAMP, luciferase)” value on mouse RXFP2 is reported as “activate the mouse RXFP2 receptor at levels comparable to human RXFP2 activation”.

In the case of `O=C1Nc2ccc(-c3cc(C(F)(F)F)cc(C(F)(F)F)c3)cc2C(=O)N2CCN(C(=O)COc3ccc(OC(F)(F)F)cc3Br)C[C@@H]12` [Example 158, (S)-8-(3,5-Bis(trifluoromethyl)phenyl)-2-(2-(2-bromo-4-(trifluoromethoxy)phenoxy)acetyl)-1,3,4,12a-tetrahydrobenzo[e]pyrazino[1,2-a][1,4]diazepine-6,12 (2H, 11H)-dione], the “mouse RXFP2 activation (cAMP, luciferase)” value at mouse RXFP2 was “activate the mouse RXFP2 receptor at levels comparable to human RXFP2 activation”.

`O=C1Nc2ccc(-c3cc(C(F)(F)F)cc(C(F)(F)F)c3)cc2C(=O)N2CCN(C(=O)COc3ccc(OC(F)(F)F)cc3I)C[C@@H]12` [Example 187, (S)-8-(3,5-bis(trifluoromethyl)phenyl)-2-(2-(2-iodo-4-(trifluoromethoxy)phenoxy)acetyl)-1,3,4,12a-tetrahydrobenzo[e]pyrazino[1,2-a][1,4]diazepine-6,12 (2H, 11H)-dione] had an Emax on WT RXFP2 (HEK-293T, normalized to 2 μM forskolin cAMP response as 100% activity) of 86.3 ± 3.38%. The EC50 at WT RXFP2 (read-out: EC50 (μM or nM)) came to 0.012 ± 0.008 µM.

Source of the values: patent US20250134907A1, “FUSED DIAZEPINES AS AGONISTS OF THE INSULIN-LIKE 3 (INSL3) PEPTIDE RECEPTOR RXFP2 AND METHODS OF USE THEREOF” (The United States of America,as represented by the …, priority 2022, published 2025).
